According to article PMC5522529, “Mechanisms of Paradoxical Activation of AMPK by the Kinase Inhibitors SU6656 and Sorafenib” (Cell Chemical Biology, 2017):

Columns and labels:
ACC = ACC phosphorylation in HEK293 cells (western blot); type: cell-based, human; conditions: 1 hr
Protocol: Figure 1 SU6656 Activates AMPK but Not AMPK-Related Kinases (A) HEK293 cells were incubated with the indicated concentrations of SU6656 or berberine (300 μM) for 1 hr; total AMPK activity was assayed in immunoprecipitates (top; mean ± SEM, n = 4), and phosphorylation of AMPK (Thr172), ACC (Ser80), and Raptor (Ser792) analyzed by western blotting (bottom; n = 2). (B) HEK293 cells were incubated with 100 μM SU6656 (1 hr), AMPK complexes containing α1, α2, β1, and β2 immunoprecipitated using isoform-specific antibodies, and AMPK activity measured (mean ± SEM, n = 4). (C) HeLa cells stably expressing LKB1 ([Fogarty et al., 2010]) were incubated with 100 μM SU6656 for 1 hr, AMPK or individual ARKs immunoprecipitated, and kinase assays carried out (antibodies that distinguish MARK2/MARK3 were not available, so they were assayed together). Results are means ± SEM (n = 2). In all panels, asterisks indicate significant differences from controls without SU6656. *p < 0.05, **p < 0.01, ****p < 0.0001.
(B) WT or RG cells were treated as in (A) and nucleotides extracted for analysis (mean ± SD, n = 3). […] (E) (See also Figure S2) Time courses of cellular oxygen uptake before and after addition of the indicated concentrations of sorafenib (SO, μM), SU6656 (100 μM) or phenformin (PHEN, 10 mM) (mean ± SEM, n = 4). (F) Effect of various concentrations of sorafenib or phenformin (10 mM) on activation (top, mean ± SEM, n = 3) or phosphorylation (bottom) of AMPK in cells expressing wild-type AMPK-γ2 (WT) or the R531G mutant AMPK-γ2 (RG). In all panels, asterisks show significant differences from DMSO controls (ns, not significant). […]
Cells were incubated for 60 min and AMPK activity measured; results in the top panel are means ± SEM (n = 8), with significant differences from the DMSO control indicated (ns, not significant). […]
SDS-PAGE was performed using precast Bis-Tris 4–12% gradient polyacrylamide gels in the MOPS buffer system (ThermoFisher Scientific). […] Protein concentrations were determined by Coomassie Blue binding with bovine serum albumin as standard ([Bradford, 1976]). […]

HEK293 cells = assay: Cellular oxygen uptake; type: cell-based, human
Protocol: (B) WT or RG cells were treated as in (A) and nucleotides extracted for analysis (mean ± SD, n = 3). […] (E) (See also Figure S2) Time courses of cellular oxygen uptake before and after addition of the indicated concentrations of sorafenib (SO, μM), SU6656 (100 μM) or phenformin (PHEN, 10 mM) (mean ± SEM, n = 4). (F) Effect of various concentrations of sorafenib or phenformin (10 mM) on activation (top, mean ± SEM, n = 3) or phosphorylation (bottom) of AMPK in cells expressing wild-type AMPK-γ2 (WT) or the R531G mutant AMPK-γ2 (RG). In all panels, asterisks show significant differences from DMSO controls (ns, not significant). In (B), daggers (†) show significant differences between results in WT and RG cells. *p < 0.05, **p < 0.01, ***p < 0.001, ****p < 0.0001, ^††††p < 0.0001.
Cellular oxygen consumption rate was measured using a Seahorse XF24 Extracellular Flux Analyser according to manufacturers’ instructions, as specified previously ([Hawley et al., 2010]).
Oxygen uptake of HEK-293 cells measured under basal conditions
(open bars), after addition of the indicated concentration of SU6656 or berberine (300 µM) (gray bars), then after subsequent addition of the uncoupler 2,4-dinitrophenol (DNP, hatched bars, 100 µM) […]
different before and after addition of SU6656 or berberine, while […]
subsequent addition of DNP.

AMPK-α1 (WT) = target: T1, AMPK-α1 (WT) (Homo sapiens, UniProt Q13131); assay: AMPK activity of FLAG-tagged AMPK-α1 (WT) expressed in HEK293 cells; type: cell-based; conditions: for AMPK activity and Thr172 phosphorylation: WT FLAG-α1, A769662 300 μM, berberine 300 μM, phenformin 10 mM, troglitazone 100 μM, oligomycin 1 μM, SU6656 100 μM
T1 construct: we expressed FLAG-tagged full-length AMPK-α1 either as the WT or the AT mutant; expressed in transfected cells; host or cells: HEK293
From the text: (B) Western blotting of the same preparations as in (A). […] (D) Allosteric activation of WT and mutant α1β1γ1 complexes by MT 63-78, curve fitting as for (C). […] (E) Allosteric activation of WT and mutant α1β1γ1 complexes by AMP. Data were fitted to the equation for activation/inactivation by AMP ([Gowans et al., 2013]). […] (F) Activation of WT and AA mutant by various AMPK activators in HEK293 cells. […] FLAG-tagged complexes were isolated by immunoprecipitation and AMPK activity determined (mean ± SEM, n = 2).
We next expressed the FLAG-tagged WT or AA mutant of AMPK-α1 by transient transfection in HEK293 cells, treated with various agents, and measured AMPK activity in anti-FLAG immunoprecipitates. In Figure 4F, the results are expressed as absolute activities and are accompanied by blots showing Thr172 phosphorylation.
The α1-KD was precipitated using anti-FLAG and endogenous AMPK complexes using anti-α1 antibody, and activity determined. […] (B) Western blots (n = 2) using the indicated antibodies; samples from experiment in (A). (C) DNAs encoding FLAG-tagged AMPK-α1 (WT or AT mutant) were expressed by transient transfection in HEK293 cells, the cells treated with increasing concentrations of SU6656 for 1 hr, AMPK complexes precipitated with anti-FLAG, and activity measured.

T1 sequence (Q13131 whole entry): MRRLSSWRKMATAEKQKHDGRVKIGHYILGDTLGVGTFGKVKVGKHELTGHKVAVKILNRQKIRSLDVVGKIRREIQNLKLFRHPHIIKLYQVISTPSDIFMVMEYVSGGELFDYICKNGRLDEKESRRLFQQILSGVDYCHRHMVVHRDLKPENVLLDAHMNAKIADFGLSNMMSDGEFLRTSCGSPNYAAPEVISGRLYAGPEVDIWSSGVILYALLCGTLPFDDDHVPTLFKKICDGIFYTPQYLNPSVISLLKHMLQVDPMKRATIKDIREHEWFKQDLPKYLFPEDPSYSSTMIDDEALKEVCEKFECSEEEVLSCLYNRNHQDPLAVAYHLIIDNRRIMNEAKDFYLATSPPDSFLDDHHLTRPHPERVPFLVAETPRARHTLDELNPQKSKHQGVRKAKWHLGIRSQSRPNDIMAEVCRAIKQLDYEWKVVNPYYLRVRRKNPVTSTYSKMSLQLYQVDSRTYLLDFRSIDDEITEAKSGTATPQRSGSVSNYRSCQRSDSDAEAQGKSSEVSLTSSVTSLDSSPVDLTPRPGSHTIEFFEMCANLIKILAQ
T1 sequence (P54619 whole entry partner): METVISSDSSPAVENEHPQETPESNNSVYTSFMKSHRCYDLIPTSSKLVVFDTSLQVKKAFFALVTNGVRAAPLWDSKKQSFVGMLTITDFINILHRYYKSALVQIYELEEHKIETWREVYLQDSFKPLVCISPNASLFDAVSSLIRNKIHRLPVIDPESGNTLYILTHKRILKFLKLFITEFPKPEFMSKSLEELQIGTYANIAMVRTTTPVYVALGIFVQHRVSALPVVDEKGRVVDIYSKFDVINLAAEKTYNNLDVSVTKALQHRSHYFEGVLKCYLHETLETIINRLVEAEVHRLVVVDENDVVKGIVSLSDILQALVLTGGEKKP

## CN(C)S(=O)(=O)c1ccc2c(c1)/C(=C/c1cc3c([nH]1)CCCC3)C(=O)N2 [SU6656]
ACC
  ACC phosphorylation: increased phosphorylation
HEK293 cells
  cellular oxygen uptake: no effects
AMPK-α1 (WT); WT FLAG-α1 (comparison with AT mutant), 1 hr
  AMPK activity: robustly activated
AMPK-α1 (WT); WT FLAG-α1, 100 μM, relative to DMSO control
  increase in activity and Thr172 phosphorylation: 3 fold
AMPK-α1 (WT); 1 hr
  AMPK activity and Thr172 phosphorylation: activated AMPK and caused Thr172 phosphorylation

## COc1ccc2cc3[n+](cc2c1OC)CCc1cc2c(cc1-3)OCO2 [berberine]
AMPK-α1 (WT); 1 hr
  AMPK activity and Thr172 phosphorylation: activated AMPK and caused Thr172 phosphorylation

## CNC(=O)c1cc(Oc2ccc(NC(=O)Nc3ccc(Cl)c(C(F)(F)F)c3)cc2)ccn1 [sorafenib]
ACC
  ACC phosphorylation: promoted Thr172 and ACC phosphorylation
HEK293 cells
  concentrations that rapidly inhibited cellular oxygen uptake: 3 to 30 µM
